Measured values taken from BindingDB's records for doi:10.1016/0024-3205(84)90540-x (Schering-Plough, 1984).
pKi: −log10 of the molar value. Where a name gives a salt, the structure may show the parent alone.

Legend:
D(1A) dopamine receptor = D(1A) dopamine receptor (Rattus norvegicus, UniProt P18901)
D(2) dopamine receptor = D(2) dopamine receptor (Rattus norvegicus, UniProt P61169)
Chain of D(2) dopamine receptor (P61169 whole entry): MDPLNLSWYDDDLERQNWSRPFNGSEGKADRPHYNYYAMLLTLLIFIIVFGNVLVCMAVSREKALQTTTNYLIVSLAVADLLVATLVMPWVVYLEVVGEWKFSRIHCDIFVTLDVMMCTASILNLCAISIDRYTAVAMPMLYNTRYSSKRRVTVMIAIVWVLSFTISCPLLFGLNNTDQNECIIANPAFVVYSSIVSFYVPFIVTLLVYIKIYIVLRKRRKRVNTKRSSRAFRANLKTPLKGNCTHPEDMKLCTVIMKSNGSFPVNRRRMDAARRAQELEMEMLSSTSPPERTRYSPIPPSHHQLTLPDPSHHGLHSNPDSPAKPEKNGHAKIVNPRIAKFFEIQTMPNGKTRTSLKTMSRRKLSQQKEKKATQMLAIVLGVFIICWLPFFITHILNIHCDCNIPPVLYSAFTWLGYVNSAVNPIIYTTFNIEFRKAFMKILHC

Chain of D(1A) dopamine receptor (P18901 whole entry): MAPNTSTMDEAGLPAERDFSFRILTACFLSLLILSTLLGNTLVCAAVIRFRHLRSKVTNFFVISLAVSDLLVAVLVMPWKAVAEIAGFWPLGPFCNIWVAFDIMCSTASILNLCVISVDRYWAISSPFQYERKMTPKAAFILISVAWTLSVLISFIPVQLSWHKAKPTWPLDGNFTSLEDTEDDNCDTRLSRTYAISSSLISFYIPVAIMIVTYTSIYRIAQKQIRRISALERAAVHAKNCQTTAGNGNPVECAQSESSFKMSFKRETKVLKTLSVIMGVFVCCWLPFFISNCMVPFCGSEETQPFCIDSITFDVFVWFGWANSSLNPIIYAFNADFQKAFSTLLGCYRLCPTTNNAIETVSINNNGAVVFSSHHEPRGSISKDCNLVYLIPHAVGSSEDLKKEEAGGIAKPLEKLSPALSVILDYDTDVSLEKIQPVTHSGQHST

OCCN1CCN(CCCN2c3ccccc3Sc3ccc(C(F)(F)F)cc32)CC1 [2-[4-[3-[2-(trifluoromethyl)phenothiazin-10-yl]propyl]piperazin-1-yl]ethanol;hydrochloride]
pKi (D(1A) dopamine receptor): 7.95

CC[C@@H](CO)NC(=O)[C@@H]1C=C2c3cccc4c3c(cn4C)C[C@H]2N(C)C1
pKi (D(2) dopamine receptor): 6.94 | pKi (D(1A) dopamine receptor): 6.66

OCCN1CCN(CCCN2c3ccccc3Sc3ccc(Cl)cc32)CC1 [4-[3-(2-chlorophenothiazin-10-yl)propyl]-1-piperazineethanol]
pKi (D(2) dopamine receptor): 8.89 | pKi (D(1A) dopamine receptor): 7.52

OCCC1CCN(CC/C=C2\c3ccc(F)cc3Sc3ccc(C(F)(F)F)cc32)CC1 [trans piflutixol-(E)]
pKi (D(2) dopamine receptor): 7.14 | pKi (D(1A) dopamine receptor): 7.02

NCCc1c[nH]cn1 [[3H]histamine]
pKi (D(2) dopamine receptor): < 5.00 | pKi (D(1A) dopamine receptor): < 5.00

N[C@@H](CCC(=O)O)C(=O)O [L-Glutamic acid]
pKi (D(2) dopamine receptor): < 5.00 | pKi (D(1A) dopamine receptor): < 5.00

O=C(c1ccc(F)cc1)C1CCN(CCn2c(=O)[nH]c3ccccc3c2=O)CC1 [3-(2-{4-[(4-fluorophenyl)carbonyl]piperidin-1-yl}ethyl)-1,2,3,4-tetrahydroquinazoline-2,4-dione]
pKi (D(2) dopamine receptor): 6.40 | pKi (D(1A) dopamine receptor): 6.00

OCCC1CCN(CCC=C2c3ccc(F)cc3Sc3ccc(C(F)(F)F)cc32)CC1 [CAS_60197-32-2]
pKi (D(2) dopamine receptor): 9.00 | pKi (D(1A) dopamine receptor): 8.54

NCCCC(=O)O [4-amino-n-[2,3-3H]butyric acid]
pKi (D(2) dopamine receptor): < 5.00 | pKi (D(1A) dopamine receptor): < 5.00

CN1C2CC(OC(=O)C(CO)c3ccccc3)CC1C1OC12 (stereo unspecified) [3-hydroxy-2-phenyl-propionic acid 9-methyl-3-oxa-9-aza-tricyclo[3.3.1.0*2,4*]non-7-yl ester]
pKi (D(2) dopamine receptor): < 5.00 | pKi (D(1A) dopamine receptor): < 5.00

NCC(O)c1ccc(O)c(O)c1 (stereo not drawn) [Noradrenaline,(+)]
pKi (D(2) dopamine receptor): < 5.00 | pKi (D(1A) dopamine receptor): < 5.00
